From patent publication US10919852B2, “Immunomodulator compounds” (CHEMOCENTRYX, INC., priority 2017, dated 2021)

Biological target: human PD-L1 / Human PD-1 (Homo sapiens (Human), UniProt Q9NZQ7)
Assay: Enzyme-Linked Immunosorbent Assay (ELISA), PD-1/PD-L1 binding
Conditions: plate-coated human PD-L1, biotinylated human PD-1
How it was run: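 Plates were coated with human PD-L1 at […]. Biotinylated human PD-1 (0.3 μg/mL) was added with 1:5 serially diluted compound for 1 h at 37 °C. Bound PD-1 was detected with streptavidin-HRP (1 h) and TMB (20 min), with absorbance read at 450 nm.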

human PD-L1 / Human PD-1, sequence (Q9NZQ7 19-239): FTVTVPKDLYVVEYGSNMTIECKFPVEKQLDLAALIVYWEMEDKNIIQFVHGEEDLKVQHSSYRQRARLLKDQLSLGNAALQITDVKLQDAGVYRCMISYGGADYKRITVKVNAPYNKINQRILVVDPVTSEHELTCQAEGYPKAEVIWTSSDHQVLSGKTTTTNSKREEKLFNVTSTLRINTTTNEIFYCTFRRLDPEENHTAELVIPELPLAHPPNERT

SMILES | IC50 [nM]
N#Cc1cncc(-c2cc(O[C@H]3CCc4c(-c5cccc(OCCCN6CCC(F)CC6)c5Cl)cccc43)c(Cl)cc2CNC[C@H]2CCC(=O)N2)c1 | 500 to 20000
Cc1c(OCCCN2CCC[C@@H](F)C2)cccc1-c1cccc2c1CC[C@@H]2Oc1cc(OCc2cc(C#N)cc(C#N)c2)c(CN[C@H]2CCC(=O)NC2)cc1Cl | 5 to 500
CCOc1cc(O[C@H]2CCc3c(-c4cccc(OCCCN5CC[C@@H](O)C5)c4C)cccc32)c(Cl)cc1CN[C@@H](CO)C(=O)OC(C)C | 5 to 500
Cc1c(OCCCN2CCC(F)CC2)cccc1-c1cccc2c1C[C@H](F)[C@@H]2Oc1cc(OCc2cc(C#N)cc(C#N)c2)c(CN[C@H]2CCC(=O)NC2)cc1Cl | 5 to 500
CCOc1cc(O[C@H]2CCc3c(-c4cccc(OCCCN5[C@H](C)CC[C@H]5C)c4C)cccc32)c(Cl)cc1CN1CCC(C(=O)OC)CC1 | 5 to 500
CCOc1cc(O[C@H]2CCc3c(-c4cccc(OCCCN5CCC5(C)C)c4C)cccc32)c(Cl)cc1CNCC1CCC(=O)N1C (stereo partly shown) | 5 to 500
N#Cc1cncc(COc2cc(O[C@H]3CCc4c(-c5cccc(OCCCN6CCC(F)CC6)c5Cl)cccc43)c(Cl)cc2CN2CCNC(=O)C2)c1 | 5 to 500
Cc1c(OCCCN2CC3(CCC3)C2)cccc1-c1cccc2c1CC[C@@H]2Oc1cc(OCc2cc(C#N)cc(C#N)c2)c(CNC[C@H]2CCC(=O)N2)cc1Cl | 5 to 500
Cc1c(OCCCN2CCC(C)(C)CC2)cccc1-c1cccc2c1CC[C@@H]2Oc1cc(OCc2cc(C#N)cc(C#N)c2)c(CN[C@H]2CCC(=O)NC2)cc1Cl | 5 to 500
CCOc1cc(O[C@H]2CCc3c(-c4cccc(OCCCN5CCC(F)CC5)c4Cl)cccc32)c(Cl)cc1CN[C@H]1CCC(=O)NC1 | 5 to 500
CCOc1cc(O[C@H]2CCc3c(-c4cccc(OCCCN5CCC5(C)C)c4C)cccc32)c(Cl)cc1CN(CC)CCC(=O)O | 5 to 500
CCOc1cc(O[C@H]2CCc3c(-c4cccc(OCCCN5CCC5(C)C)c4C)cccc32)c(Cl)cc1CN[C@H]1CCC(=O)NC1 | 5 to 500
CCOc1cc(O[C@H]2CCc3c(-c4cccc(OCCC(C)(C)N)c4C)cccc32)c(Cl)cc1CN[C@H]1CCC(=O)NC1 | 5 to 500
Cc1c(OCCCN2CCC(F)CC2)cccc1-c1cccc2c1CC[C@@H]2Oc1cc(OCc2cc(C#N)cc(C#N)c2)c(CNC[C@H]2CCC(=O)N2)cc1Cl | 5 to 500
CCOc1cc(O[C@H]2CCc3c(-c4cccc(OCCCN5CCC(F)CC5)c4Cl)cccc32)c(Cl)cc1CN[C@@H]1CCCC[C@@H]1O | 5 to 500
N#Cc1cc(C#N)cc(COc2cc(O[C@@H]3c4cccc(-c5cccc(OCCCN6CC(O)C6)c5Cl)c4C[C@@H]3F)c(Cl)cc2CNC[C@@H]2CCC(=O)N2)c1 | 5 to 500

The remaining lines, values ahead:

IC50 [nM] | SMILES
< 5 | Cc1c(OCCCN2CCC(O)CC2)cccc1-c1cccc2c1CC[C@@H]2Oc1cc(OCc2cncc(C#N)c2)c(CN2CCC(C)(O)CC2)cc1Cl
5 to 500 | CCOc1cc(O[C@H]2CCc3c(-c4cccc(OCCCN5CCC(F)CC5)c4Cl)cccc32)c(Cl)cc1CN[C@H](C(=O)NS(C)(=O)=O)[C@@H](C)O
< 5 | N#Cc1cncc(COc2cc(O[C@H]3CCc4c(-c5cccc(OCCCN6CC7(CC(F)C7)C6)c5Cl)cccc43)c(Cl)cc2CNC[C@@H]2CCC(=O)N2)c1
< 5 | N#Cc1cncc(COc2cc(O[C@H]3CCc4c(-c5cccc(OCCCN6CCC(O)CC6)c5Cl)cccc43)c(Cl)cc2CNC[C@H]2CCC(=O)N2)c1
< 5 | N#Cc1cncc(COc2cc(O[C@H]3CCc4c(-c5cccc(OCCCN6CC(O)C6)c5Cl)cccc43)c(Cl)cc2CNCC(=O)O)c1
< 5 | C[C@@H](O)[C@H](NCc1cc(Cl)c(O[C@H]2CCc3c(-c4cccc(OCCCN5CCC(O)CC5)c4Cl)cccc32)cc1OCc1cncc(C#N)c1)C(=O)O
< 5 | Cc1c(OCCCN2CC3(CC(O)C3)C2)cccc1-c1cccc2c1CC[C@@H]2Oc1cc(OCc2cc(C#N)cc(C#N)c2)c(CNC[C@H]2CCC(=O)N2)cc1Cl
< 5 | Cc1c(OCCCN2CC[C@@H](O)C2)cccc1-c1cccc2c1CC[C@@H]2Oc1cc(OCc2cncc(C#N)c2)c(CN[C@H](C(=O)O)[C@@H](C)O)cc1Cl
< 5 | CCOc1cc(O[C@H]2CCc3c(-c4cccc(OCCCN5CCCC5(C)C)c4C)cccc32)c(Cl)cc1CNC[C@@H]1CCC(=O)N1 [drawing 395]
